The values below come from US10449177B2, “Methods of treating mild cognitive impairment (MCI) and related disorders” (Buck Institute for Research on Aging, priority 2010, dated 2019).

Data set [1] in a line: Brain uptake testing (PK): plasma and brain levels by LC/MS/MS. Particulars: mouse, in vivo, sc. On the set-up: species or system mice. The protocol:
Brain uptake testing (PK): In general, CNS exposure studies consisted of collection of heparinized plasma and brains after treatment with tropisetron, nimetazepam, disulfuram and honokiol following subcutaneous (sc) administration of the molecules at 10 mg/kg. Plasma and brain levels of the compounds were determined by quantitative LC/MS/MS methodology, conducted at Integrated Analytical Solutions (on the internet at ianalytical.net). Plasma samples were precipitated with acetonitrile:methanol (1:1) cocktail containing an internal standard. The brain samples were homogenized directly in ethylacetate or extracted from 5M guanidine homogenates using the liquid-liquid method. The resulting supernatant were evaporated to dryness and subjected to the LC/MS/MS analysis. For each compound 3 mice were used for analysis. The brain-to-plasma ratios and brain levels were then be calculated to identify the best candidate(s) for further testing.

The test system of data set [2] is APP. The data set can be described thus: sAPPα, Aβ40 and Aβ42 levels in brain (PD) of APP transgenic (PDAPP) mice. Particulars: Tg mice; for Aβ40 levels / Aβ42 levels / sAPPα levels in hippocampus (Hip) and entorhinal cortex (ECx): 10 mpk sc, 5 days. It is filed as in vivo. The procedure: […] Analysis: […]® kits from Perkin Elmer (PE) were used to quantify sAPPα (cat#: AL254C), sAPPβ (cat#: AL232C), Aβ40 (cat #: AL275C), Aβ42 (cat#: AL276C) and Tau (cat#: AL271C) from brain homogenates. The samples are added to an AlphaPlate-384 (cat#: 6005350). Twenty microliters (μl) of acceptor bead antibody mix was added to each five μl cerebrospinal fluid (CSF) sample and allowed to incubate for one hour at room temperature. Next, 25 μl of donor beads were added and allowed to incubate in the dark for 30 minutes at room temperature. Fluorescence was then measured on an EnsPire 96-well plate reader (Perkin-Elmer).
ELISA assays: ELISA kits from Invitrogen were also used to quantify Aβ1-40 (KHB3481) and Aβ1-42 (KHB3544) in duplicate from the CSF samples stored at −80° C. For assay, samples were thawed on ice and BSL-2 precautions practiced at all times. For the human Aβ 1-42 ultrasensitive ELISA, samples were diluted 1:2 (50 μl CSF plus 50 μl kit-provided standard diluent buffer). For the human Aβ1-40 ELISA, samples were diluted 1:15 (6.7 μl CSF plus […] of standard diluent buffer). Assays were performed according to manufacturer's instructions. In short, standards and samples were added to a plate pre-coated with a monoclonal capture antibody specific for the amino terminus of Hu Aβ. The samples were co-incubated with a rabbit detection antibody (Ab) specific for the carboxy terminus of the Aβ species being assayed for 3 hr at room temperature (Aβ 1-40) to overnight at 4° (Aβ 1-42) with gentle rocking After washing, bound rabbit Ab was detected using a horseradish peroxidase-labeled anti-rabbit secondary Ab. After washing again, bound HRP-anti rabbit Ab was detected colorimetrically (Spectramax 190, Molecular Devices) by the addition of a substrate solution. 1 mM 4-(2-Aminoethyl)benzenesulfonyl fluoride hydrochloride (AEBSF) protease inhibitor (101500, Calbiochem) was added to standards and samples.
In case of tropisetron the testing was done at 0.3 mpk, while in case of the other compounds (e.g., nimetazepam, disulfuram and honokiol) it was done at 10 mpk. From the collected brains the hippocampi were dissected. Levels of sAPPα, and Aβ1-40, Aβ1-42 and APPneo were measured by […] assay ([…] Perkin-Elmer), and Aβ1-40, Aβ1-42 (Invitrogen, sensitive ELISA kit) in brain homogenates of Tg mice. All procedures involved have been described (Galavan 2006, Proc Natl Acad Sci USA, 103, 7130-7135). […] The brain-to-plasma ratio (PK) of tropisetron and sAPPalpha/Aβ42 ratios (PD) were then determined.

Data set [3] has as its target T1, MBP-eAPP230-624 (Homo sapiens, UniProt P05067).
T1 construct: 100 μg of purified MBP-eAPP230-624 were incubated with 50 μM Disulfuram
The data set can be described thus: Small-angle X-ray scattering of MBP-eAPP230-624 incubated with compound. It is filed as binding. Particulars: for Dmax (Å) ± 10 / MWcalc/MWseq ± 0.2 / Rg (Å) ± 2 / binding to MBP-eAPP230-624 / APP and effect on conformation or dimerization: 50 μM compound; for Dmax (Å) ± 10 / MWcalc/MWseq ± 0.2 / Rg (Å) ± 2: MBP-eAPP230-624, 4° C., 1 hour; for binding to MBP-eAPP230-624 / APP and effect on conformation or dimerization: small-angle X-ray scattering. The protocol: X-ray scattering data collection: To 100 μg of purified MBP-eAPP230-624 were incubated with 50 μM Disulfuram or 50 μM Sulfiram in 20 mM sodium phosphate pH 7.4, 137 mM sodium chloride, 0.05% dimethyl sulfoxide at 4° C. for 1 hour. The control sample was incubated in the buffer alone. The samples were then concentrated to approximately 1.5 mg/ml using […] NML concentrators. Small-angle X-ray scattering data were collected using protein concentrations in the range of 0.25-1.5 mg/ml and an X-ray wavelength of 1.11 Å at beam line 12.3.1 (Advanced Light Source). Samples of the filtrate were used for buffer subtraction. Data were integrated with software customized for the beam line and processed with the program PRIMUS (Konarev (2003) Journal of Applied Crystallography 36, 1277-1282). The program GNOM (Svergun, (1992) J. Appl. Crystallogr. 25, 495-503) was used to calculate the maximum dimension and the radius of gyration and to estimate the intensity of the scattering at zero angle for higher concentration samples. The molecule weight of each protein was calculated by comparing to the scattering of proteins of known molecule weight.

The subject of data set [4] is 7 W cells stably transfected with APP. The data set can be described thus: […] sAPPα assay in 7 W APP transfected cells. The following applies: 7 W CHO cells, 1 μM compound, 24 h. In kind it is cell-based. The procedure:
In vitro compound testing assay: 7 W CHO cells were seeded at 50,000 cells/well in a 96 wells plate for 24 h. Then their medium was changed for fresh medium supplemented with 1 μM compounds (e.g., tropisetron, disulfuram, honokiol, and/or nimetazepam). After 24 h, 20 μl of the medium was added to 2 μl of the complete protease inhibitor with 1 μM EDTA and kept at 4° C. until analysis. 2 μl of that medium was treated with the Perkin Elmer (PE) […]® Aβ kit to determine the amount of Aβ42 secreted by the cells in 24 h using the PE-Enspire reader. Another aliquot of 2 μl of the medium was diluted with 50 μl of the PE […]® buffer and was treated with the PE […]® sAPPα kit to determine the amount of sAPPα secreted by the cells in 24 h. For the assay, 2 μl of the final mixture was treated with the acceptor bead and the donor antibody followed by addition of the donor beads and the […]® signal was measured using a PE-Enspire reader. For measurement of APPneo, the 50,000 cells were treated after seeding with fresh medium supplemented with or without the compound, but without fetal bovine serum (FBS), in order to induce the formation of the APPneo fragment. […]

A short description of data set [5]: Degradation in brain tissue. In kind it is in vitro ADME.
The conditions of data set [6]: stated as known for the benzodiazepine; cited from earlier work.

T1 sequence (P05067 230-624 isoform P05067-4): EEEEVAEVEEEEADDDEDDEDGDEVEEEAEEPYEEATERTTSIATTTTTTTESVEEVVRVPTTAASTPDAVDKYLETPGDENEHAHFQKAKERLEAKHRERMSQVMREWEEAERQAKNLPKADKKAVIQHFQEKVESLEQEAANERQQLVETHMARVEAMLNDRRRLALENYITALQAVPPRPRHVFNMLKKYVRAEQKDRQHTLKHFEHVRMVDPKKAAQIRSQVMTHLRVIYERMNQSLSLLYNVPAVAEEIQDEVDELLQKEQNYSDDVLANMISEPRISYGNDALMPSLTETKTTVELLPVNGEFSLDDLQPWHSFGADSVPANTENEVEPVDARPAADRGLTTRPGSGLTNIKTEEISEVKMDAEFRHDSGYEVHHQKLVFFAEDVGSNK

Turning to `C=CCc1ccc(O)c(-c2ccc(O)c(CC=C)c2)c1` [honokiol, 2-(4-hydroxy-3-prop-2-enyl-phenyl)-4-prop-2-enyl-phenol], in data set [1], the “blood-brain-barrier / brain penetration” value was “penetrates the brain well”. Besides, in data set [2], the Aβ40 levels result is reported as “No significant changes”; the Aβ42 levels result was “No significant changes”; the “sAPPα levels in hippocampus (Hip) and entorhinal cortex (ECx)” value (from here on “sAPPα levels in hippocampus”) is on record as “no significant increase”.
For `CCN(CC)C(=S)SSC(=S)N(CC)CC` [Disulfiram, 1,1′,1″,1′″-[disulfanediylbis(carbonothioylnitrilo)]tetraethane], in data set [3], the “Dmax (Å) ± 10” value stood at 160 Å, the “MWcalc/MWseq ± 0.2” value is listed as 1.5 and the “Rg (Å) ± 2” value is recorded as 51 Å. The “binding affinity relative to sulfuram” value in data set [3] (inferred from greater effect in X-ray scattering) is “higher binding affinity”. Moreover, the “binding to MBP-eAPP230-624 / APP and effect on conformation or dimerization” value in data set [3] (listed as Disulfuram) is “can bind to APP and disrupt APP dimerization”. Besides, the “binding to MBP-eAPP230-624 / APP and effect on conformation or dimerization” value in data set [3] (listed as disulfuram) was “bind to MBP-eAPP230-624 and alter the conformation of the protein”. Also, in data set [1], the “blood-brain-barrier / brain penetration” value is “low blood-brain-barrier penetration”. Besides, the Aβ levels entry in data set [2] (10 mpk) is recorded as “no changes”. Further, the “sAPPα levels in hippocampus” value in data set [2] is reported as “no changes”. Moreover, in data set [4], the “sAPPα levels secreted by cells” value is recorded as “increase”. The “stability in brain tissue” value in data set [5] was “degrades rapidly in brain tissue”.
With `CCN(CC)C(=S)SC(=S)N(CC)CC` [Sulfiram], in data set [3], the “Dmax (Å) ± 10” value was 170 Å; the “MWcalc/MWseq ± 0.2” value is 1.7; the “Rg (Å) ± 2” value was determined as 53 Å; the “binding to MBP-eAPP230-624 / APP and effect on conformation or dimerization” value was “bind to MBP-eAPP230-624 and alter the conformation of the protein”.
Turning to `CN1C(=O)CN=C(c2ccccc2)c2cc([N+](=O)[O-])ccc21` [Nimetazepam, 2-methyl-9-nitro-6-phenyl-2,5-diazabicyclo[5.4.0] undeca-5,8,10,12-tetraen-3-one], in data set [2], the Aβ40 levels result is on record as “No significant changes” and the Aβ42 levels entry is given as “No significant changes”. Also, in data set [2] (10 mg/kg), the “sAPPα levels in hippocampus” value is on record as “significant increase”. For the same compound, the “sAPPα levels in hippocampus” value in data set [2] (listed as nimetazepam, 10 mg/kg) is “increase”. For the same compound, the “blood-brain-barrier penetration (known)” value in data set [6] is given as “cross the blood-brain-barrier well”.
